Values joined by “and” are separate entries in the source; they are usually repeats but may differ in a detail not shown here. Identical values can stand only once. Toxic doses and inconclusive results are not listed. Cut-off read from the data, not from the text of the source: active = T/C of 150% or more; inactive = T/C below 125%.
Test system: L1210 leukemia ip in BDF1 mice, survival T/C
Test: NCI In Vivo Anticancer Drug Screen. Data for tumor model L1210 Leukemia (intraperitoneal) in B6D2F1 (BDF1) mice
Conditions: endpoint: mean survival time, higher = longer survival
Method in brief: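 Survival endpoint. Drug-treated group vs vehicle group, expressed as T divided by C. Tumor passaged by transplantation.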

[1] = dose: 100.0 mg/kg/injection, schedule: Q04DX003 (ip), vehicle: Klucel (hydroxypropylcellulose) (HPC)
[2] = dose: 200.0 mg/kg/injection, schedule: Q04DX003 (ip), vehicle: Klucel (hydroxypropylcellulose) (HPC)
[3] = dose: 400.0 mg/kg/injection, schedule: Q04DX003 (ip), vehicle: Klucel (hydroxypropylcellulose) (HPC)
[4] = dose: 100.0 mg/kg/injection, schedule: Q04DX002 (ip), vehicle: Klucel (hydroxypropylcellulose) (HPC)
[5] = dose: 200.0 mg/kg/injection, schedule: Q04DX002 (ip), vehicle: Klucel (hydroxypropylcellulose) (HPC)
[6] = dose: 400.0 mg/kg/injection, schedule: Q04DX002 (ip), vehicle: Klucel (hydroxypropylcellulose) (HPC)
[7] = dose: 100.0 mg/kg/injection, schedule: Q04DX003 (ip), vehicle: saline
[8] = dose: 200.0 mg/kg/injection, schedule: Q04DX003 (ip), vehicle: saline
[9] = dose: 50.0 mg/kg/injection, schedule: Q01DX001 (ip), vehicle: saline
[10] = dose: 75.0 mg/kg/injection, schedule: Q01DX001 (ip), vehicle: saline
[11] = dose: 25.0 mg/kg/injection, schedule: Q01DX009 (ip), vehicle: saline
[12] = dose: 50.0 mg/kg/injection, schedule: Q01DX009 (ip), vehicle: saline
[13] = dose: 50.0 mg/kg/injection, schedule: Q01DX001 (ip), vehicle: carboxymethylcellulose (CMC)
[14] = dose: 100.0 mg/kg/injection, schedule: Q01DX001 (ip), vehicle: carboxymethylcellulose (CMC)
[15] = dose: 200.0 mg/kg/injection, schedule: Q01DX001 (ip), vehicle: carboxymethylcellulose (CMC)
[16] = dose: 400.0 mg/kg/injection, schedule: Q01DX001 (ip), vehicle: carboxymethylcellulose (CMC)
[17] = dose: 100.0 mg/kg/injection, schedule: Q01DX001 (ip), vehicle: other
[18] = dose: 200.0 mg/kg/injection, schedule: Q01DX001 (ip), vehicle: other
[19] = dose: 400.0 mg/kg/injection, schedule: Q01DX001 (ip), vehicle: other
[20] = dose: 25.0 mg/kg/injection, schedule: Q04DX003 (ip), vehicle: Klucel (hydroxypropylcellulose) (HPC)
[21] = dose: 50.0 mg/kg/injection, schedule: Q04DX003 (ip), vehicle: Klucel (hydroxypropylcellulose) (HPC)
[22] = dose: 100.0 mg/kg/injection, schedule: Q01DX001 (ip), vehicle: saline
[23] = dose: 200.0 mg/kg/injection, schedule: Q01DX001 (ip), vehicle: saline
[24] = dose: 100.0 mg/kg/injection, schedule: Q01DX009 (ip), vehicle: Klucel (hydroxypropylcellulose) (HPC)
[25] = dose: 200.0 mg/kg/injection, schedule: Q01DX009 (ip), vehicle: Klucel (hydroxypropylcellulose) (HPC)
[26] = dose: 400.0 mg/kg/injection, schedule: Q01DX009 (ip), vehicle: Klucel (hydroxypropylcellulose) (HPC)
[27] = dose: 12.5 mg/kg/injection, schedule: Q01DX009 (ip), vehicle: saline
[28] = dose: 25.0 mg/kg/injection, schedule: Q04DX003 (ip), vehicle: saline
[29] = dose: 50.0 mg/kg/injection, schedule: Q04DX003 (ip), vehicle: saline

Measured: T/C

Brc1cscc1C1=CCCc2ccccc21
inactive: [1] 106 % of control | [2] 98 % of control | [3] 101 % of control

O=[N+]([O-])c1ccc(Oc2ccc(Cl)cc2)cc1
inactive: [1] 94 % of control | [2] 102 % of control | [3] 94 % of control

CCOC(=O)CNc1cccc(I)c1
inactive: [4] 110 % of control | [5] 100 % of control | [6] 104 % of control

CN(CC(C)(C)C=O)C(=O)c1ccccc1
inactive: [7] 96 % of control | [8] 103 % of control | dose: 400.0 mg/kg/injection, schedule: Q04DX003 (ip), vehicle: saline 100 % of control

CC(Cl)CCN1CCCCC1 (stereo not drawn)
inactive: [9] 104 % of control

CC(Cc1ccccc1)NCCCCl (stereo not drawn)
inactive: dose: 15.0 mg/kg/injection, schedule: Q01DX001 (ip), vehicle: carboxymethylcellulose (CMC) 89 % of control | dose: 30.0 mg/kg/injection, schedule: Q01DX001 (ip), vehicle: carboxymethylcellulose (CMC) 95 % of control | dose: 60.0 mg/kg/injection, schedule: Q01DX001 (ip), vehicle: carboxymethylcellulose (CMC) 93 % of control

COC(=O)N1C2C=CC(=O)C(C=C2)N1C(=O)OC (stereo not drawn)
inactive: [10] 106 % of control | dose: 150.0 mg/kg/injection, schedule: Q01DX001 (ip), vehicle: saline 106 % of control | dose: 300.0 mg/kg/injection, schedule: Q01DX001 (ip), vehicle: saline 109 % of control

O=C(CCN1CCCC1)c1ccc(F)cc1
inactive: [11] 109 % of control | [12] 115 % of control

O=C(Nc1ccccc1)Nc1cccc(C(F)(F)F)c1
inactive: [13] 104 % of control | [14] 102 % of control | [15] 107 % of control | [16] 109 % of control

N#C/C(=C/c1ccc(O)cc1)C(=O)O
inactive: [1] 96 % of control | [2] 94 % of control | [3] 94 % of control

CCOC(=O)P(C(=O)OCC)C(=O)OCC
inactive: [10] 97 % of control

Cc1ccc(NC(=O)c2cc3ccccc3cc2O)c(C)c1
inactive: [17] 92 % of control | [1] 100 % of control | [18] 92 % of control | [2] 94 % of control | [19] 92 % of control | [3] 105 % of control

CC(=O)Nc1ccc(C(=O)CCl)cc1
inactive: dose: 25.0 mg/kg/injection, schedule: Q01DX009 (ip), vehicle: Klucel (hydroxypropylcellulose) (HPC) 95 % of control | [20] 93 % of control and 101 % of control | [13] 101 % of control | dose: 50.0 mg/kg/injection, schedule: Q01DX009 (ip), vehicle: Klucel (hydroxypropylcellulose) (HPC) 88 % of control | [21] 105 % of control | [1] 110 % of control

CCOC(=O)Nc1cc(NC(=O)OCC)cc([N+](=O)[O-])c1
inactive: dose: 100.0 mg/kg/injection, schedule: Q04DX003 (ip), vehicle: saline with Tween-80 110 % of control | dose: 200.0 mg/kg/injection, schedule: Q04DX003 (ip), vehicle: saline with Tween-80 102 % of control | dose: 400.0 mg/kg/injection, schedule: Q04DX003 (ip), vehicle: saline with Tween-80 89 % of control

FC1(F)SC2C3CCC(C3)C2C1(F)F (stereo not drawn)
inactive: dose: 6.25 mg/kg/injection, schedule: Q04DX002 (ip), vehicle: saline with Tween-80 95 % of control | dose: 12.5 mg/kg/injection, schedule: Q04DX002 (ip), vehicle: saline with Tween-80 95 % of control | dose: 25.0 mg/kg/injection, schedule: Q04DX002 (ip), vehicle: saline with Tween-80 93 % of control

CCCCCCCCCCCCCC#N
inactive: [17] 101 % of control | [18] 92 % of control | [19] 92 % of control

O/N=C/c1ccc(Cl)cc1
inactive: [9] 97 % of control | [22] 100 % of control | [23] 94 % of control

IC1CCC(I)C2CCC1O2 (stereo not drawn) (tested in a mixture with another compound)
inactive: [21] 106 % of control | [24] 106 % of control | [1] 101 % of control | [25] 104 % of control | [2] 98 % of control and 100 % of control | [26] 96 % of control | [3] 100 % of control

CCN(CC)CCc1ccccn1
inactive: [27] 98 % of control | [11] 100 % of control | [28] 106 % of control | [12] 100 % of control | [29] 103 % of control

Oc1ccccc1C=Nc1ccccc1N=Cc1ccccc1O
inactive: dose: 100.0 mg/kg/injection, schedule: Q01DX001 (ip), vehicle: Klucel (hydroxypropylcellulose) (HPC) 102 % of control | dose: 200.0 mg/kg/injection, schedule: Q01DX001 (ip), vehicle: Klucel (hydroxypropylcellulose) (HPC) 103 % of control | dose: 400.0 mg/kg/injection, schedule: Q01DX001 (ip), vehicle: Klucel (hydroxypropylcellulose) (HPC) 96 % of control

N#C/C(=C\c1ccccc1)C(=O)Nc1ccccc1
inactive: [1] 94 % of control | [2] 92 % of control | [3] 92 % of control

CCC1CC2c3cc(OC)c(OC)cc3CCN2CC1(O)Cc1ccncc1 (stereo not drawn)
inactive: dose: 100.0 mg/kg/injection, schedule: Q04DX003 (ip), vehicle: carboxymethylcellulose (CMC) 100 % of control | dose: 200.0 mg/kg/injection, schedule: Q04DX003 (ip), vehicle: carboxymethylcellulose (CMC) 104 % of control

O=[N+]([O-])c1cccc(S(=O)(=O)O)c1.[Fe]
inactive: [7] 95 % of control | [8] 89 % of control

COc1cc(C)c(C(=O)Oc2cc(C)c(C(=O)O)c(O)c2C)c(OC)c1C
inactive: dose: 6.25 mg/kg/injection, schedule: Q01DX009 (ip), vehicle: saline 95 % of control | [27] 98 % of control | [11] 97 % of control and 98 % of control | dose: 37.5 mg/kg/injection, schedule: Q01DX Z (ip), vehicle: saline 93 % of control | dose: 75.0 mg/kg/injection, schedule: Q01DX Z (ip), vehicle: saline 98 % of control | dose: 100.0 mg/kg/injection, schedule: Q01DX Z (ip), vehicle: saline 96 % of control | dose: 150.0 mg/kg/injection, schedule: Q01DX Z (ip), vehicle: saline 93 % of control | dose: 300.0 mg/kg/injection, schedule: Q01DX Z (ip), vehicle: saline 98 % of control

CCCCCCCC/C=C\CCCCCCCC(=O)[O][Sn]([CH2]CCC)([CH2]CCC)[O]C(=O)CCCCCCC/C=C\CCCCCCCC
inactive: dose: 1.56 mg/kg/injection, schedule: Q01DX009 (ip), vehicle: Klucel (hydroxypropylcellulose) (HPC) 109 % of control | dose: 3.12 mg/kg/injection, schedule: Q01DX009 (ip), vehicle: Klucel (hydroxypropylcellulose) (HPC) 98 % of control | dose: 6.25 mg/kg/injection, schedule: Q01DX009 (ip), vehicle: Klucel (hydroxypropylcellulose) (HPC) 106 % of control

CCOc1ccc(NC(=O)COc2ccc(Cl)cc2Cl)cc1
inactive: [4] 89 % of control | [5] 101 % of control | [6] 92 % of control

NC(=O)c1ccccc1NC(=O)Nc1ccccc1F
inactive: [24] 105 % of control | [25] 107 % of control | [26] 100 % of control

CCNNC
inactive: dose: 12.5 mg/kg/injection, schedule: Q04DX003 (ip), vehicle: saline 104 % of control | [28] 103 % of control | [29] 101 % of control | [7] 111 % of control | [8] 108 % of control

CCCC1C(CC)C=NN1Cc1ccccc1 (stereo not drawn)
inactive: [13] 88 % of control | [14] 100 % of control | [15] 94 % of control | [16] 92 % of control

CCCCN(CCCC)CCN(CCCC)CCN(CCCC)CCCC
inactive: [28] 103 % of control | [29] 98 % of control | [7] 98 % of control and 89 % of control

CC1CN(C2CC3OCC3O2)C(=O)NC1=O (stereo not drawn)
inactive: [22] 103 % of control | [23] 98 % of control | dose: 400.0 mg/kg/injection, schedule: Q01DX001 (ip), vehicle: saline 98 % of control

O/N=C1\C(Cl)C2CC1C1C=CCC12 (stereo not drawn)
inactive: [20] 91 % of control

Source: PubChem BioAssay AID248 (DTP/NCI, 2004)
